Test results from patent publication US20230393140A1, “BINDING ASSAYS INVOLVING A PLURALITY OF SYNTHETIC COMPOUNDS, TARGETS, AND COUNTER TARGETS” (SRI International, priority 2020, published 2023).
Like-named read-outs stand apart in the source and are kept apart here. Numbered stars: 1 amine (or outer) side, 2 acyl side, 3 side chain; on linkers, the order of the positions; unused ones are H or OH. Square brackets hold non-standard residues; d marks the D form. Peptide text beside a SMILES is read from it. * marks the point of attachment. 5FAM = O=C1OC2(c3ccc(O)cc3Oc3cc(O)ccc32)c2ccc(C(=O)*)cc21; NHCH2C6H4(4-CH2CONH2) = NC(=O)Cc1ccc(CN*)cc1; X1 = O=C(Cc1ccc(CN[*:1])cc1)[*:2]

Biological target: T1, IL-6 (Homo sapiens, UniProt P05231)
T1 construct: purchased Creative Biomart IL6-12H
Experiment: MST binding affinity of resynthesized NNP hits to IL-6
Experimental: Hit binding affinity to various targets were determined using Microscale Thermophoresis (MST). MST experiments were performed on a Monolith NT.115pico (NanoTemper Technologies GmbH, Munich, Germany). Measurements were performed at room temperature, in triplicate with incubation periods of 15, 30 and 45 minutes. […] Targets were labeled using Nanotemper Monolith 2nd Generation Protein Labeling Kits. RED-MALEIMIDE (Maleimide-647-dye) labeling kit was used for K-Ras and RED-NHS (NHS-647-dye) labeling kit was used for IL-6, IL-6R, TNFα and ASGPR. The buffer for the ASGPR contained 20 mM HEPES pH 7.4, 150 mM NaCl, 10 mM MgCl2, 2 mM CaCl2, 0.05% Pluronic F-127, and 1 mM DTT; for IL-6 contained 20 mM HEPES pH 7.4, 150 mM KCl, 10 mM MgCl2, and 0.1% Pluronic F-127; for the soluble IL-6 receptor 20 mM HEPES pH 7.4, 150 mM NaCl, 10 mM MgCl2, and 0.05% Tween-20; for K-Ras 20 mM HEPES pH 7.4, 150 mM NaCl, 10 mM MgCl2, 0.05% Tween-20 and 1 mM DTT; for TNFα 10 mM HEPES pH 7.4, 150 mM NaCl, 10 mM MgCl2, 0.05% Polysorbate-20. Triplicate data was analyzed using MO.AffinityAnalysis software (NanoTemper Technologies GmbH).

[1] = NNP2 library hit, target IL-6, one-site binding model
[2] = read-out: KD (nM) [95% conf. int], NNP2 library hit, target IL-6, one-site binding model

Structure (SMILES)	Kd [1]	Kd [2]
CC(C)C[C@H](NC(=O)[C@@H](CCCNC(=N)N)NC(=O)[C@@H](Cc1c[nH]c2ccccc12)NC(=O)Cc1ccc(CNC(=O)[C@H](Cc2ccccc2)NC(=O)[C@@H](CO)NC(=O)[C@@H](CCCNC(=N)N)NC(=O)Cc2ccc(CNC(=O)[C@H](Cc3ccccc3)NC(=O)[C@@H](CO)NC(=O)[C@@H](CCC(=O)O)NC(=O)Cc3ccc(CNC(=O)[C@H](Cc4ccccc4)NC(=O)[C@@H](Cc4c[nH]c5ccccc45)NC(=O)[C@@H](CCCNC(=N)N)NC(=O)c4ccc5c(c4)C(=O)OC54c5ccc(O)cc5Oc5cc(O)ccc54)cc3)cc2)cc1)C(=O)NCc1ccc(CC(=O)NCC(=O)N[C@H](C)C(=O)N[C@H](C(=O)NCc2ccc(CC(=O)N[C@H](CC(N)=O)C(=O)N[C@H](CCCNC(=N)N)C(=O)N[C@@H](Cc3ccccc3)C(=O)NCc3ccc(CC(=O)N[C@H](C)C(=O)N[C@H](CO)C(=O)N[C@@H](Cc4ccccc4)C(=O)NCc4ccc(CC(=O)N5CCC[C@@H]5C(=O)N[C@H](CCCNC(=N)N)C(=O)N[C@@H](C)C(=O)NCc5ccc(CC(=O)N[C@H](Cc6ccccc6)C(=O)N[C@H](CCCCN)C(=O)NCC(=O)NCc6ccc(CC(N)=O)cc6)cc5)cc4)cc3)cc2)C(C)C)cc1 [IL6-65-3, Fluorescein-(D)Arg-(D)Trp-(L)Phe-PAM-(D)Glu-(D)Ser-(L)Phe-PAM-(D)Arg-(D)Ser-(L)Phe-PAM-(D)Trp-(D)Arg-(L)Leu-PAM-Gly-(D)Ala-(L)Val-PAM-(D)Asn-(D)Arg-(L)Phe-PAM-(D)Ala-(D)Ser-(L)Phe- PAM-(D)Pro-(D)Arg-(L)Ala-PAM-(D)Phe-(D)Lys-Gly-PAM] (5FAM-[dR][dW]F[X1][dE][dS]F[X1][dR][dS]F[X1][dW][dR]L[X1]G[dA]V[X1][dN][dR]F[X1][dA][dS]F[X1][dP][dR]A[X1][dF][dK]G-{NHCH2C6H4(4-CH2CONH2)})	90 nM	–
CC(C)C[C@H](NC(=O)[C@@H](CCCCN)NC(=O)[C@@H](Cc1c[nH]cn1)NC(=O)Cc1ccc(CNC(=O)[C@H](CC(C)C)NC(=O)[C@@H](CCCNC(=N)N)NC(=O)[C@@H](Cc2c[nH]c3ccccc23)NC(=O)Cc2ccc(CNC(=O)[C@H](Cc3ccccc3)NC(=O)[C@@H](Cc3ccc(O)cc3)NC(=O)[C@@H](Cc3c[nH]cn3)NC(=O)Cc3ccc(CNC(=O)[C@H](CC(C)C)NC(=O)[C@@H](CCCNC(=N)N)NC(=O)[C@@H](CC(C)C)NC(=O)Cc4ccc(CNC(=O)[C@H](Cc5ccccc5)NC(=O)[C@@H](Cc5c[nH]c6ccccc56)NC(=O)[C@@H](CCCNC(=N)N)NC(=O)c5ccc6c(c5)C(=O)OC65c6ccc(O)cc6Oc6cc(O)ccc65)cc4)cc3)cc2)cc1)C(=O)NCc1ccc(CC(=O)N[C@H](C)C(=O)N[C@H](Cc2ccc(O)cc2)C(=O)NCC(=O)NCc2ccc(CC(=O)N[C@H](Cc3c[nH]cn3)C(=O)N[C@H](CCC(=O)O)C(=O)N[C@@H](CC(C)C)C(=O)NCc3ccc(CC(=O)N4CCC[C@@H]4C(=O)N[C@H](CCCNC(=N)N)C(=O)N[C@@H](C)C(=O)NCc4ccc(CC(=O)N[C@H](Cc5ccccc5)C(=O)N[C@H](CCCCN)C(=O)NCC(=O)NCc5ccc(CC(N)=O)cc5)cc4)cc3)cc2)cc1 [IL6-65-4, Fluorescein-(D)Arg-(D)Trp-(L)Phe-PAM-(D)Leu-(D)Arg-(L)Leu-PAM-(D)His-(D)Tyr-(L)Phe-PAM-(D)Trp-(D)Arg-(L)Leu-PAM-(D)His-(D)Lys-(L)Leu-PAM-(D)Ala-(D)Tyr-Gly-PAM-(D)His-(D)Glu-(L)Leu- PAM-(D)Pro-(D)Arg-(L)Ala-PAM-(D)Phe-(D)Lys-Gly-PAM] (5FAM-[dR][dW]F[X1][dL][dR]L[X1][dH][dY]F[X1][dW][dR]L[X1][dH][dK]L[X1][dA][dY]G[X1][dH][dE]L[X1][dP][dR]A[X1][dF][dK]G-{NHCH2C6H4(4-CH2CONH2)})	37 nM	–
CC(C)C[C@H](NC(=O)[C@@H](CCCNC(=N)N)NC(=O)CNC(=O)Cc1ccc(CNC(=O)[C@H](Cc2ccccc2)NC(=O)[C@@H](Cc2ccccc2)NC(=O)[C@@H](CO)NC(=O)c2ccc3c(c2)C(=O)OC32c3ccc(O)cc3Oc3cc(O)ccc32)cc1)C(=O)NCc1ccc(CC(=O)N[C@H](CC(C)C)C(=O)N[C@H](CCCCN)C(=O)N[C@@H](CC(C)C)C(=O)NCc2ccc(CC(=O)N[C@H](Cc3c[nH]c4ccccc34)C(=O)N[C@H](CCCNC(=N)N)C(=O)N[C@@H](CC(C)C)C(=O)NCc3ccc(CC(=O)N[C@H](C)C(=O)N[C@H](CCCCN)C(=O)N[C@@H](Cc4ccccc4)C(=O)NCc4ccc(CC(=O)N[C@H](Cc5c[nH]cn5)C(=O)N[C@H](CCCCN)C(=O)N[C@@H](Cc5ccccc5)C(=O)NCc5ccc(CC(=O)N[C@H](C)C(=O)N[C@H](CCCNC(=N)N)C(=O)N[C@@H](CC(C)C)C(=O)NCc6ccc(CC(=O)N[C@@H](C(=O)N[C@H](Cc7c[nH]cn7)C(=O)N[C@@H](CC(C)C)C(=O)NCc7ccc(CC(=O)N[C@H](Cc8ccccc8)C(=O)N[C@H](CCCNC(=N)N)C(=O)NCC(=O)NCc8ccc(CC(N)=O)cc8)cc7)[C@H](C)O)cc6)cc5)cc4)cc3)cc2)cc1 [IL6-65-5] (5FAM-[dS][dF]F[X1]G[dR]L[X1][dL][dK]L[X1][dW][dR]L[X1][dA][dK]F[X1][dH][dK]F[X1][dA][dR]L[X1][dT][dH]L[X1][dF][dR]G-{NHCH2C6H4(4-CH2CONH2)})	–	33 nM
CC(C)C[C@H](NC(=O)[C@@H](CCCNC(=N)N)NC(=O)CNC(=O)Cc1ccc(CNC(=O)[C@H](CC(C)C)NC(=O)[C@@H](CC(C)C)NC(=O)[C@@H](Cc2ccc(O)cc2)NC(=O)c2ccc3c(c2)C(=O)OC32c3ccc(O)cc3Oc3cc(O)ccc32)cc1)C(=O)NCc1ccc(CC(=O)N[C@H](CCCNC(=N)N)C(=O)N[C@H](CO)C(=O)N[C@@H](Cc2ccccc2)C(=O)NCc2ccc(CC(=O)N[C@H](Cc3ccccc3)C(=O)N[C@H](CCCNC(=N)N)C(=O)N[C@@H](C)C(=O)NCc3ccc(CC(=O)N[C@H](CCC(=O)O)C(=O)N[C@H](CCCCN)C(=O)N[C@@H](Cc4ccccc4)C(=O)NCc4ccc(CC(=O)N[C@H](CCC(=O)O)C(=O)N[C@H](CCCNC(=N)N)C(=O)N[C@@H](CC(C)C)C(=O)NCc5ccc(CC(=O)N[C@H](C)C(=O)N[C@H](CCCNC(=N)N)C(=O)N[C@@H](CC(C)C)C(=O)NCc6ccc(CC(=O)N7CCC[C@@H]7C(=O)N[C@H](CCCNC(=N)N)C(=O)N[C@@H](C)C(=O)NCc7ccc(CC(=O)N[C@H](Cc8ccc(O)cc8)C(=O)N[C@H](CCCNC(=N)N)C(=O)N[C@@H](Cc8ccccc8)C(=O)NCc8ccc(CC(N)=O)cc8)cc7)cc6)cc5)cc4)cc3)cc2)cc1 [IL6-65-7, Fluorescein-(D)Tyr-(D)Leu-(L)Leu-PAM-Gly-(D)Arg-(L)Leu-PAM-(D)Arg-(D)Ser-(L)Phe-PAM-(D)Phe-(D)Arg-(L)Ala-PAM-(D)Glu-(D)Lys-(L)Phe-PAM-(D)Glu-(D)Arg-(L)Leu-PAM-(D)Ala-(D)Arg-(L)Leu- PAM-(D)Pro-(D)Arg-(L)Ala-PAM-(D)Tyr-(D)Arg-(L)Phe-PAM] (5FAM-[dY][dL]L[X1]G[dR]L[X1][dR][dS]F[X1][dF][dR]A[X1][dE][dK]F[X1][dE][dR]L[X1][dA][dR]L[X1][dP][dR]A[X1][dY][dR]F-{NHCH2C6H4(4-CH2CONH2)})	–	210 nM
CC(C)C[C@H](NC(=O)[C@@H](CCCNC(=N)N)NC(=O)CNC(=O)Cc1ccc(CNC(=O)[C@H](CC(C)C)NC(=O)[C@@H](CC(C)C)NC(=O)[C@@H](Cc2ccc(O)cc2)NC(=O)c2ccc3c(c2)C(=O)OC32c3ccc(O)cc3Oc3cc(O)ccc32)cc1)C(=O)NCc1ccc(CC(=O)N[C@H](CCCNC(=N)N)C(=O)N[C@H](CO)C(=O)N[C@@H](Cc2ccccc2)C(=O)NCc2ccc(CC(=O)N3CCC[C@@H]3C(=O)N[C@H](CCCNC(=N)N)C(=O)N[C@H](C(=O)NCc3ccc(CC(=O)N[C@H](Cc4c[nH]c5ccccc45)C(=O)N[C@H](CCCNC(=N)N)C(=O)N[C@H](C(=O)NCc4ccc(CC(=O)N[C@H](CC(N)=O)C(=O)N[C@H](CCCNC(=N)N)C(=O)N[C@@H](Cc5ccccc5)C(=O)NCc5ccc(CC(=O)N[C@H](CCC(=O)O)C(=O)N[C@H](Cc6ccc(O)cc6)C(=O)N[C@H](C(=O)NCc6ccc(CC(=O)N7CCC[C@@H]7C(=O)N[C@H](CCCNC(=N)N)C(=O)N[C@@H](C)C(=O)NCc7ccc(CC(=O)N[C@H](Cc8ccc(O)cc8)C(=O)N[C@H](CCCNC(=N)N)C(=O)N[C@@H](Cc8ccccc8)C(=O)NCc8ccc(CC(N)=O)cc8)cc7)cc6)C(C)C)cc5)cc4)C(C)C)cc3)C(C)C)cc2)cc1 [IL6-65-11, Fluorescein-(D)Tyr-(D)Leu-(L)Leu-PAM-Gly-(D)Arg-(L)Leu-PAM-(D)Arg-(D)Ser-(L)Phe-PAM-(D)Pro-(D)Arg-(L)Val-PAM-(D)Trp-(D)Arg-(L)Val-PAM-(D)Asn-(D)Arg-(L)Phe-PAM-(D)Glu-(D)Tyr-(L)Val- PAM-(D)Pro-(D)Arg-(L)Ala-PAM-(D)Tyr-(D)Arg-(L)Phe-PAM] (5FAM-[dY][dL]L[X1]G[dR]L[X1][dR][dS]F[X1][dP][dR]V[X1][dW][dR]V[X1][dN][dR]F[X1][dE][dY]V[X1][dP][dR]A[X1][dY][dR]F-{NHCH2C6H4(4-CH2CONH2)})	–	25 nM
